Data: patent publication US5302700A, “Radiohalogenation conjugate technology” (Duke University, priority 1988, dated 1994)

Legend:
[1] = background; cited from earlier work
[2] = aqueous solution; background; cited from earlier work
[3] = Paired-label study: thyroid and stomach uptake of [125I]INA and [131I]iodide in mice; type: in vivo
Excerpt: When radioiodine is released from proteins following in vivo administration, loss of label occurs (dehalogenation). Since free iodide is taken up avidly by the thyroid and, at early time points, localizes in the stomach, uptake of radioiodine by these tissues is often used as an indicator of dehalogenation in vivo.
(§1) The method of choice for comparing the pharmacokinetics of two radioiodinated products (or two samples of the same compound, each sample radioiodinated using a different method) is to administer both to the same group of animals, labeling the first with ^125 I and the second with ^131 I. By performing "paired-label" experiments, one can correct for systematic errors such as incomplete thyroid sampling (less than 10 mg in a mouse) which could make […] comparisons difficult.
(§2) In the first paired-label study, groups of mice were injected with both [^131 ]iodide and 5-^125 I]iodonicotinic acid (hereinafter INA), the labeled substrate which is attached to proteins in the SPC procedure.

[4] = Whole body clearance of INA and iodide (FIG. 1); type: in vivo, mice; settings: vs iodide
Description: as §1, §2
One approach for decreasing the retention of a nuclide in normal tissues following the administration of labeled antibodies is to couple the isotope in a chemical form which will be excreted rapidly after antibody catabolism. Degradation of antibodies labeled using the SPC method should result in the production of 5-iodonicotinic acid (INA).

thyroid uptake of 125I (INA), times lower than 131I (iodide) ([3]; thyroid, 125I vs 131I)	whole body clearance compared with iodide [4]	Compound	in vivo loss of radioiodine from the protein [1]	hydrolysis of the active ester [2]	dehalogenation in vivo of INA template [3]	Stomach uptake ([3]; 1 hr after injection)	Thyroid uptake ([3]; 1 hr after injection)	Stomach uptake ([3]; 2 hr after injection)	Thyroid uptake ([3]; 2 hr after injection)	Stomach uptake ([3]; 4 hr after injection)	Thyroid uptake ([3]; 4 hr after injection)	Stomach uptake ([3]; 6 hr after injection)	Thyroid uptake ([3]; 6 hr after injection)	Stomach uptake ([3]; 24 hr after injection)	Thyroid uptake ([3]; 24 hr after injection)	percentages of the injected dose localizing in thyroid and, at early time points, stomach, compared with iodide ([3]; vs iodide)
		COC(=N)c1cc(I)c(O)c(I)c1 [Woods]	in vivo loss of radioiodine from the protein													
		O=C(CCc1ccc(O)c([125I])c1)ON1C(=O)CCC1=O [Bolton-Hunter]		rapid hydrolysis of the active ester in aqueous solution												
23-56 times lower	considerably faster than iodide	O=C(O)c1cncc([125I])c1 [INA, 5-[^125 I]iodonicotinic acid]			relatively inert to dehalogenation in vivo	0.69 ± 0.40 percentages of the injected do	0.13 ± 0.13 percentages of the injected do	0.53 ± 0.41 percentages of the injected do	0.27 ± 0.09 percentages of the injected do	0.18 ± 0.03 percentages of the injected do	0.44 ± 0.21 percentages of the injected do	0.24 ± 0.10 percentages of the injected do	1.04 ± 0.24 percentages of the injected do	0.14 ± 0.01 percentages of the injected do	0.67 ± 0.19 percentages of the injected do	significantly lower than those observed with iodide
		I [Iodide, [^131 I]iodide, reference compound]				16.56 ± 8.10 percentages of the injected do	7.23 ± 1.27 percentages of the injected do	12.61 ± 7.33 percentages of the injected do	7.23 ± 1.39 percentages of the injected do	3.53 ± 0.74 percentages of the injected do	12.21 ± 3.27 percentages of the injected do	4.16 ± 1.82 percentages of the injected do	23.64 ± 4.95 percentages of the injected do	0.06 ± 0.02 percentages of the injected do	16.95 ± 4.98 percentages of the injected do	
